Assay results from patent US8349896B2, “Aspirin-triggered lipid mediators” (The Brigham and Womens's Hospital, Inc., priority 2000, dated 2013).
Where two headings read alike, the source gives them in different places.

Experiments:
human PMN = assay: LTB4-stimulated PMN transendothelial migration; format: cell-based; details: for potency relative to the compounds derived from EPA: similar to results of FIGS. 9A (transmigration) and 9C (air pouch), no data shown; for rank order of potency, inhibition of PMN migration: tested in parallel for direct comparison; for IC50: human PMN, FIG. 9A
Protocol: Human PMNs were freshly isolated from venous blood of healthy volunteers (that declined taking medication for 2 wk before donation; Brigham and Women's Hospital protocol no. 88-02642) by Ficoll gradient and enumerated. Human umbilical vein or microvascular ECs (HUVECs or HMVECs, respectively) were cultured for transendothelial migration (Reference 10), HMVEC monolayers (one, two, or three passages) were seeded (−2×10^5 cells/cm^2) on polycarbonate permeable supports precoated with 0.1% gelatin for incubations with NSAIDs and PUFA.

Recombinant Human COX-2 = biological target: T1, Recombinant Human COX-2 (Homo sapiens, UniProt P35354); assay: Conversion of PUFA to hydroxy compounds by recombinant COX-2 incubated with NSAID; format: biochemical; details: for 11R-HEPE, conversion of n-3 C20:5 / 15R-HEPE, conversion of n-3 C20:5 / 18R-HEPE, conversion of n-3 C20:5: Table 2, mean amount +/− SEM
T1 construct: host or cells: Sf9 insect cells, baculovirus; microsomal fractions
T1 sequence (P35354 18-604): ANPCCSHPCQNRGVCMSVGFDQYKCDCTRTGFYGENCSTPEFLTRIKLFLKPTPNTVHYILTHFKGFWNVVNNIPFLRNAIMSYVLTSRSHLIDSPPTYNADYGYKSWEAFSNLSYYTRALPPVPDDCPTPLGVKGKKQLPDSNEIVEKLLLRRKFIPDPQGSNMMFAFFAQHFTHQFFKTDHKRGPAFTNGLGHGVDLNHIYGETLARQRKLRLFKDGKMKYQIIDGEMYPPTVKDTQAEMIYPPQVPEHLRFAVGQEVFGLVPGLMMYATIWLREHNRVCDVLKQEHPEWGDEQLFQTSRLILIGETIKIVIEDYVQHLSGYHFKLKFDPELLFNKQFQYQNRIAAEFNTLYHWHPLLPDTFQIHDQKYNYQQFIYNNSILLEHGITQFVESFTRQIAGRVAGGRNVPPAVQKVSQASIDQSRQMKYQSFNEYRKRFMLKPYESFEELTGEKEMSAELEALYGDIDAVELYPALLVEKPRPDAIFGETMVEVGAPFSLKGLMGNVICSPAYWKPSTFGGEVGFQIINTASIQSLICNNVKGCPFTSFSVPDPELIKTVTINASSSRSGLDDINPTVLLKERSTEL
Protocol: Human recombinant COX-2 (a gift from Dr. R. A. Copeland, DuPont Merck, Wilmington, Del.) was overexpressed in […] (American Type Culture Collection) with microsomal fractions (˜8 μl) suspended in Tris (100 mM, pH 8.0) as in Reference 21. George, H. J., D. E. Van Dyk, R. A. Straney, J. M. Trzaskos, and R. A. Copeland. 1996. Expression purification and characterization of recombinant human inducible prostaglandin G/H synthase from baculovirus-infected insect cells. Protein Expres. Purif. 7:19-26. NSAIDs were incubated (i.e., ASA ˜1 mM) at 37° C. for 30 min before addition of PUFA (20 μM), and conversions were also monitored using 1-^14C-labeled C20:4 (See FIGS. 2A and 2B) or C20:5 (NEN Life Science Products) (See FIGS. 2C and 2D).

[1] = system: PMN infiltration into murine dorsal air pouches; assay: TNF-α induced leukocyte/PMN infiltration into murine dorsal air pouch; format: in vivo, FVB mice; details: 100 ng intravenously into tail; TNF-α 100 ng/pouch; lavage at 4 h
Protocol: Inflammatory exudates were initiated with intrapouch injection of TNF-α (R&D Systems) into 6 d dorsal air pouches with (Reference 16) 6-8-wk-old male FVB mice (fed standard rodent diet 5001 containing 0.26% n-3 fatty acids) followed by ASA (500 μg) at 3.5 h and 300 μg C20:5/pouch at 4 h. At 6 h, pouches were lavaged (3 ml saline), and exudate cells were enumerated and activated 94 μM A23187, 37° C., 20 min). Inhibition of TNF-α-stimulated (100 ng/pouch, FVB strain) PMN infiltration with intravenous tail injection of either 18 R-hydroxyeicosapentaenoic acid (HEPE), 5, 12, 18R-HEPE, or 15-epi-LXA, analogue was determined (Reference 16) with pouch lavages taken at 4 h.

[2] = biological target: T2, recombinant human LTB4 receptor (Homo sapiens, UniProt Q15722); assay: [3H]LTB4 competition binding, HEK-293 cells stably expressing receptor; details: HEK293 cells
T2 construct: expressed in transfected cells
T2 sequence (Q15722 whole entry): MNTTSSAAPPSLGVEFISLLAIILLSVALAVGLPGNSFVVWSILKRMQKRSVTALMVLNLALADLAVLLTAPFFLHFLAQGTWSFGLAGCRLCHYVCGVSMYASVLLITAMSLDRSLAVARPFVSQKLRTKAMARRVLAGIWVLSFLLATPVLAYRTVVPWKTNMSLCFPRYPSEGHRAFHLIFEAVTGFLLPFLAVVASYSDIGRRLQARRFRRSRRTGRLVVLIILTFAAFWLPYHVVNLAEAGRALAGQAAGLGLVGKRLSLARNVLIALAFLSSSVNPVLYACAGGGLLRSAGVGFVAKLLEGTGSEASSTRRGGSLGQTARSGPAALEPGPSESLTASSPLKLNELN

[3] = PUFA 20 μM, ASA ~1 mM or NS398 100 uM, mean ± SEM
[4] = PUFA 20 μM, ASA ~1 mM, mean ± SEM
[5] = Table 1, PUFA 20 μM, ASA ~1 mM or NS398 100 uM, mean ± SEM

19-hydroxy-DHA
potency relative to the compounds derived from EPA (human PMN): potencies equivalent to those described above for the compounds derived from EPA

CC(=O)Nc1ccc(O)cc1 [Acetaminophen]
11R-HEPE, conversion of n-3 C20:5 (Recombinant Human COX-2): 6.7 ± 3.0 ng
15R-HEPE, conversion of n-3 C20:5 (Recombinant Human COX-2): 4.6 ± 1.2 ng
18R-HEPE, conversion of n-3 C20:5 (Recombinant Human COX-2): 5.5 ± 2.4 ng
reduction of levels of 15R- and 18R-HEPE versus absence of inhibitors (Recombinant Human COX-2; recombinant COX-2 and C20:5, concentrations as high as 2 mM, n=3): three to eight times

O=C(O)CCC[C@H](O)[C@H](O)/C=C/C=C/C=C\C=C\[C@H](O)COc1ccc(F)cc1 [15-epi-LXA4 stable analogue, 15(5)-16(para-fluoro)-phenoxy-LXA4]
inhibition of PMN infiltration into murine dorsal air pouches (in words) [1]: potent inhibitor of PMN infiltration
rank order of potency, inhibition of PMN migration (human PMN): 15-epi-LXA4 stable analogue >5,12,18R-tri-HEPE >18R-HEPE

CC/C=C\C/C=C\C=C\C(O)C/C=C\C/C=C\C/C=C\CCC(=O)O (stereo not drawn) [13-hydroxy-DHA]
potency relative to the compounds derived from EPA (human PMN): potencies equivalent to those described above for the compounds derived from EPA

CC(=O)Oc1ccccc1C(=O)O [ASA, aspirin]
increase in 18R-HEPE on ASA acetylation of COX-2 (Recombinant Human COX-2; C20:5): approximately twofold increase
reduction in 11R-HEPE on ASA acetylation of COX-2 (Recombinant Human COX-2; C20:5): > 85%
11R-HETE (ω-9) generated from C20:4 (Recombinant Human COX-2; [3]): 1.4 ± 1.6 ng/incubation
15R-HETE (ω-5) generated from C20:4 (Recombinant Human COX-2; [3]): 234.0 ± 112.5 ng/incubation
9-HODE (ω-9) generated from C18:2 (Recombinant Human COX-2; [4]): 25.2 ± 17.8 ng/incubation
13-HODE (ω-5) generated from C18:2 (Recombinant Human COX-2; [4]): 2.9 ± 0.6 ng/incubation
11R-HEPE (ω-9) generated from C20:5 (Recombinant Human COX-2; [5]): 5.4 ± 3.3 ng/incubation
15R-HEPE (ω-5) generated from C20:5 (Recombinant Human COX-2; [5]): 16.8 ± 5.8 ng/incubation
18R-HEPE (ω-2) generated from C20:5 (Recombinant Human COX-2; [5]): 16.2 ± 3.3 ng/incubation
11R-HEPE, conversion of n-3 C20:5 (Recombinant Human COX-2): 5.5 ± 2.3 ng
15R-HEPE, conversion of n-3 C20:5 (Recombinant Human COX-2): 8.0 ± 5.6 ng
18R-HEPE, conversion of n-3 C20:5 (Recombinant Human COX-2): 12.2 ± 4.6 ng

CC/C=C\C/C=C\CC(O)/C=C/C=C\C/C=C\C/C=C\CCC(=O)O (stereo not drawn) [14-hydroxy-DHA]
potency relative to the compounds derived from EPA (human PMN): potencies equivalent to those described above for the compounds derived from EPA

CC[C@@H](O)/C=C/C=C\C/C=C\C/C=C\C/C=C\CCCC(=O)O [Compound 18R-HEPE, 18R-hydroxyeicosapentaenoic acid]
inhibition of PMN infiltration into murine dorsal air pouches (in words) [1]: some activity in vivo
IC50 (human PMN; read-out: IC50, inhibition of LTB4-stimulated PMN transendothelial migration): > 1000 nM
rank order of potency, inhibition of PMN migration (human PMN): 15-epi-LXA4 stable analogue >5,12,18R-tri-HEPE >18R-HEPE
competition with 3H-LTB4 (in words) [2]: did not

CC/C=C\C=C\C(O)C/C=C\C/C=C\C/C=C\C/C=C\CCC(=O)O (stereo not drawn) [16-hydroxy-DHA]
potency relative to the compounds derived from EPA (human PMN): potencies equivalent to those described above for the compounds derived from EPA

CC/C=C\C/C=C\C[C@@H](O)/C=C/C=C/C=C\[C@@H](O)CCCC(=O)O [LTB5]
IC50 [2]: 500 nM

CCC(O)/C=C/C=C\C/C=C\C/C=C\C/C=C\C/C=C\CCC(=O)O (stereo not drawn) [20-hydroxy-DHA]
potency relative to the compounds derived from EPA (human PMN): potencies equivalent to those described above for the compounds derived from EPA

CC[C@@H](O)/C=C/C=C\C[C@@H](O)/C=C/C=C/C=C\[C@@H](O)CCCC(=O)O [5,12,18R-triHEPE]
inhibition of PMN infiltration into murine dorsal air pouches (in words) [1]: potent inhibitor of PMN infiltration
IC50 (human PMN; read-out: apparent IC50, inhibition of LTB4-stimulated PMN transendothelial migration): 5 to 50 nM
rank order of potency, inhibition of PMN migration (human PMN): 15-epi-LXA4 stable analogue >5,12,18R-tri-HEPE >18R-HEPE
IC50 [2]: 500 nM

CC/C=C\CC(O)/C=C/C=C\C/C=C\C/C=C\C/C=C\CCC(=O)O (stereo not drawn) [17-hydroxy-DHA]
potency relative to the compounds derived from EPA (human PMN): potencies equivalent to those described above for the compounds derived from EPA
